Measured values reported in patent publication US20060281813A1, “Methods of treating hyperproliferative cell disorders” (priority 2003, published 2006).

How the values were obtained:
[1] = system: acute lymphoblastic leukemia; experiment: Example 1: patient with relapsed acute lymphoblastic leukemia; assay type: in vivo, human
Description: A person was diagnosed with acute lymphoblastic leukemia. […] 15 received a chemotherapy induction regimen of eight cycles of Hyper-CVAD which consists of the following: Cyclophosphamide 300 mg/mn^2 intravenously (IV) over 3 hours every 12 hours for six doses on days 1 through 3, with mesna at the same total dose as cyclophosphamide but given bycontinuous infusion starting with cyclophosphamide and ending 6 hours after the last dose; vincristine 2 mg IV days 4 and 11; doxorubicin 50 mg/^2 IV day 4; and dexamethasone 40 mg daily on days 1 through 4 and 11 through 14.
In addition, high dose methotrexate-cytarabine (ara-c) was used as follows: MTX (methotrexate) 200 mg/m^2 IV over 2 hours followed by 800 mg/m^2 IV over 24 hours on day 1; citrovorum factor rescue starting 24 hours after completion of MTX infusion at 15 mg every 6 hours x 8, and increased to 50 mg every 6 hours if MTX levels were more 25 than 20 ,upmol/L at the end of the infuision, more than 1 μμmol/L 24 hours later, or more than 0.1 μμmol/L48 hours after the end of MTX infusion, until levels were lower than 0.1μμM; ara-C (cytarabine) […] over 2 hours every 12 hours ×4 on days 2 and 3; and methylprednisolone 50 mg IV twice daily on days 1 through 3.
About a year later, they relapsed with the presence of cancer cells in blood and bone marrow. Thereafter, they underwent a salvage chemotherapy regimen of FLAG (fludarabine, ara-c and G-CSF) with the following doses: fludarabine 30 mg/m^2lday for 5 days; ara-C (cytarabine) 2 g/m^2/day for 5 days (FLAG); and G-CSF (neupogen or granulocyte colony stimulating factor) 400 micrograms/m^2/day. […] They were then given the same salvage regimen plus a daily oral dose of 4-oxo-retinol at 150 mg per day for 28 days. […] This remission lasted for one month before relapse.
The same salvage regimen was repeated with oral administration of4-oxo-retinol (75 mg per day for 18 days) in addition to a daily dose of calcitriol (50 mcg per day concomitant with the administration of 4-oxo-retinol).

[2] = target: T1, RARg ligand binding domain (Homo sapiens, UniProt P13631); details: CV-1 cell transfectants, cited from earlier work
T1 construct: expressed in transfected cells; host or cells: CV-1 cells
T1 sequence (P13631 185-419 limits assumed, species assumed): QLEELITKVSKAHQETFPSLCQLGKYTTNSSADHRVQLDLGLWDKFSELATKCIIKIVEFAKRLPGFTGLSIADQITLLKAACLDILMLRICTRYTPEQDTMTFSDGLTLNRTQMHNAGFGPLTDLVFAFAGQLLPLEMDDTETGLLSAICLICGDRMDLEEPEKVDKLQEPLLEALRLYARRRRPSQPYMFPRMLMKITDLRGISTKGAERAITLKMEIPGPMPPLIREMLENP
T1 sequence (P04386 1-147 partner limits assumed, species assumed): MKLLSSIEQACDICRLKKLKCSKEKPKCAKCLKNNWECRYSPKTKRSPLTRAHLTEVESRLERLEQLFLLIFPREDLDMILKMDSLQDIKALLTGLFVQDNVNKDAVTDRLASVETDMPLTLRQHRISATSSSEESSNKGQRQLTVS

[3] = FLAG salvage regimen plus oral 150 mg per day for 28 days

In the case of `CC(C=CC1=C(C)C(=O)CCC1(C)C)=CC=CC(C)=CCO` [4-oxo-retinol], the response ([1]; FLAG salvage regimen plus oral 75 mg per day for 18 days and calcitriol 50 mcg per day) is reported as “complete remission”, the “duration of remission before relapse” value [1, 3] is reported as “one” and the lymph nodes [1, 3] is reported as “shrinkage of the lumph nodes to normal size”. For the same compound, the “response (blood and bone marrow)” value [1, 3] was “complete remission”, the “activity on GAL4 chimeras by RAR ligand binding domain” value ([2]; chimera with ligand binding domain of RARg) was “highest activity” and the “RARg activation compared with all-trans RA” value [2] was “greater ability to induce RARg activation than all-trans RA”.
